Results on 20 compounds are retold here after patent US20260334439A1, “BCAT2 INHIBITORS” (Agios Pharmaceuticals, Inc., priority 2023, published 2026).

In this assay the target is T1, BCAT2 (Homo sapiens, UniProt O15382).
T1 sequence (O15382 28-392): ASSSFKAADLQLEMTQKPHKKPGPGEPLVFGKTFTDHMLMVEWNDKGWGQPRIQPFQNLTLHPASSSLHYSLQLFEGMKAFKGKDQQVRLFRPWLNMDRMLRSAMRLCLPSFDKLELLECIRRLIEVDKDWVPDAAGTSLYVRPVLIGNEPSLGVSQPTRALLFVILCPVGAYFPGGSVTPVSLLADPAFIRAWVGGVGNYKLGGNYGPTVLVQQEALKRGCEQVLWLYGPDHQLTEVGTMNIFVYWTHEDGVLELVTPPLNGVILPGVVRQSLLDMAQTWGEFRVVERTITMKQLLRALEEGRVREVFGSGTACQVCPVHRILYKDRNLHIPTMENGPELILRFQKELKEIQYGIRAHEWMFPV
As to the kind of experiment: BCAT2 in vitro enzyme inhibition assay (hBCAT2, glutamate dehydrogenase/diaphorase/resazurin coupled fluorescence read). The conditions noted are these: hBCAT2, 1 h preincubation at 25° C., one hour reaction; average where tested multiple times. In kind it is biochemical. The protocol:
• 2×Buffer: 200 mM Tris pH 8.0, 300 mM NaCl, 0.1% BSA • 1.67×hBCAT2 Enzyme Mix: 0.33 μg/mL hBCAT2, 1× Buffer • 2.5×Substrate Mix: 460 µM L-leucine, 420 µM α-KetoGlutarate, 10 U/mL glutamate dehydrogenase, 10 mM NAD, […] diaphorase, […] Resazurin
BCAT2 enzyme stock solution was diluted to prepare a 1.67×hBCAT2 Enzyme Mix. 1 μL of test compound was first added to the reaction wells followed by 30 μL of 1.67×hBCAT2 Enzyme Mix and incubated at room temperature (25° C.) for one hour. Meanwhile the Substrate Mix was prepared. The reaction was initiated by the addition of 20 μL of the 2.5×Substrate Mix, bringing the final reaction mix of all components to 1×. Reactions were quenched after one hour by the addition of 25 μL of 6% SDS and reaction progress was measured via fluorescence read (Ex 540/Em 590).
Test compounds were prepared at 50×final concentration in DMSO, 1 to 3 dilutions were made for 10 points. The compounds were added to the assay as a 1 to 50 dilution (1 μL in 50 μL) to yield a top assay final concentration of 100 μM, decreasing 3-fold for 10 points. Each compound dilution series test also included an assay max (1 μL DMSO Added in lieu of compound, Full Reaction Components Included) and Min (1 μL DMSO Added in lieu of compound, 30 μl of 1.67×hBCAT2 Enzyme Mix replated by 30 μL of 1×Buffer). All tests were performed in technical duplicate.
Where a compound was tested multiple times, the average value of the tests is reported.
Regarding `CN1C[C@H](NC(=O)c2cc(F)ccc2F)C[C@H](n2c(-c3ccccc3OCCO)nc3cnc(-n4nccn4)cc32)C1` [Example 155, 2,5-difluoro-N-((3R,5S)-5-(2-(2-(2-hydroxyethoxy)phenyl)-6-(2H-1,2,3-triazol-2-yl)-1H-imidazo[4,5-c]pyridin-1-yl)-1-methylpiperidin-3-yl)benzamide], the IC50 is under 100 nM.

Compound `CC(CCO)Cc1nc2cnc(-c3nc[nH]n3)cc2n1[C@@H]1CCC[C@H](NC(=O)c2cc(Cl)ccn2)C1` (stereo partly drawn) [Example 95, 4-chloro-N-((1S,3R)-3-(2-(4-hydroxy-2-methylbutyl)-6-(1H-1,2,4-triazol-3-yl)-1H-imidazo[4,5-c]pyridin-1-yl)cyclohexyl)picolinamide] displayed an IC50 of over 1000 nM.

Turning to `CN1C[C@@H](N2Cc3ccc(F)cc3C2=O)C[C@@H](n2c(-c3ccccc3OCCO)nc3ccc(-c4ncccn4)cc32)C1` [Example 244, 6-fluoro-2-((3S,5R)-5-(2-(2-(2-hydroxyethoxy)phenyl)-6-(pyr-imidin-2-yl)-1H-benzo[d]imid-azol-1-yl)-1-methylpiperidin-3-yl)isoindolin-1-one], the IC50 fell in the range of 500 to 1000 nM.

Compound `CO[C@H]1C[C@H](NC(=O)c2cc(F)ccn2)C[C@H](n2c(-c3ccccc3OCCO)nc3ccc(-c4ncccn4)cc32)C1` [Example 224, 4-fluoro-N-((1R,3S,5S)-3-(2-(2-(2-hydroxyethoxy)phenyl)-6-(pyrimidin-2-yl)-1H-benzo[d]imidazol-1-yl)-5-methoxycyclo-hexyl)picolinamide] yielded an IC50 of under 100 nM.

`CC(CCO)Cc1nc2cnc(-c3nc[nH]n3)cc2n1[C@@H]1CCC[C@H](NC(=O)c2cc(Cl)ccn2)C1` (stereo partly drawn) [Example 96, 4-chloro-N-((1S,3R)-3-(2-(4-hydroxy-2-methylbutyl)-6-(1H-1,2,4-triazol-3-yl)-1H-imidazo[4,5-c]pyridin-1-yl)cyclohexyl)picolinamide] yielded an IC50 of over 1000 nM.

Take `CN1C[C@H](NC(=O)c2cc(F)ccc2F)C[C@H](n2c(-c3ccccc3OCCO)nc3cnc(-c4ncco4)cc32)C1` [Example 158, 2,5-difluoro-N-((3R,5S)-5-(2-(2-(2-hydroxyethoxy)phenyl)-6-(oxazol-2-yl)-1H-imidazo[4,5-c]pyridin-1-yl)-1-methylpiperidin-3-yl)benzamide]: the concentration for half-maximal inhibition (IC50) is under 100 nM.

In the case of `O=C(N[C@H]1CCC[C@@H](n2c(-c3ncccc3OC(F)F)nc3cnc(-c4nc[nH]n4)cc32)C1)c1cc(F)ccc1F` [compound 61], the IC50 is under 100 nM.

Turning to `COc1ccc(Cl)cc1C(=O)N[C@H]1C[C@H](O)C[C@@H](n2c(CC(C)C)nc3cnc(-c4ncccn4)cc32)C1` [Example 111, 5-chloro-N-((1R,3S,5S)-3-hydroxy-5-(2-isobutyl-6-(pyrimidin-2-yl)-1H-imidazo[4,5-c]pyridin-1-yl)cyclohexyl)-2-methoxybenzamide], the half-maximal inhibitory concentration (IC50) was under 100 nM.

Compound `CCNCc1nc2cnc(-c3nc[nH]n3)cc2n1[C@@H]1CCC[C@H](NC(=O)c2cc(Cl)ccn2)C1` [Example 38, 4-chloro-N-((1S,3R)-3-(2-((ethylamino)methyl)-6-(1H-1,2,4-triazol-3-yl)-1H-imidazo[4,5-c]pyridin-1-yl)cyclohexyl)picolinamide] came in with an IC50 of over 1000 nM.

Take `O=C(N[C@H]1CCC[C@@H](n2c(-c3ncccc3F)nc3cnc(-c4nc[nH]n4)cc32)C1)c1cc(Cl)ccc1OC(F)F` [compound 47]: the IC50 was under 100 nM.

Compound `O=C(N[C@H]1CCC[C@@H](n2c(-c3ccccc3F)nc3cnc(N4CCCC4)cc32)C1)c1cc(Cl)ccn1` [Example 28, 4-chloro-N-((1S,3R)-3-(2-(2-fluorophenyl)-6-(pyrrolidin-1-yl)-1H-imidazo[4,5-c]pyridin-1-yl)cyclohexyl)picolinamide] yielded an IC50 of 100 to 500 nM.

In the case of `CC(Oc1ccccc1-c1nc2cnc(-c3nc[nH]n3)cc2n1[C@@H]1CCC[C@H](NC(=O)c2cc(Cl)ccn2)C1)C(F)(F)F` (stereo partly drawn) [Example 91, N-((1S,3R)-3-(6-(1H-1,2,4-triazol-3-yl)-2-(2-((1,1,1-trifluoropropan-2-yl)oxy)phenyl)-1H-imidazo[4,5-c]pyridin-1-yl)cyclohexyl)-4-chloropicolinamide], the IC50 was over 1000 nM.

In turn, `COc1ccc(Cl)cc1C(=O)N[C@H]1CCCC[C@@H](n2c(-c3c(F)cccc3OC)nc3cnc(-c4nc[nH]n4)cc32)[C@@H]1O` [Example 110, 5-chloro-N-((1S,2R,3R)-3-(2-(2-fluoro-6-methoxyphenyl)-6-(1H-1,2,4-triazol-3-yl)-1H-imidazo[4,5-c]pyridin-1-yl)-2-hydroxycycloheptyl)-2-methoxybenzamide] registered an IC50 of under 100 nM.

`N#Cc1ccccc1-c1nc2cnc(-c3nc[nH]n3)cc2n1[C@@H]1CCC[C@H](N2COc3ccc(F)cc3C2=O)C1` [Example 210, 2-(1-((1R,3S)-3-(6-fluoro-4-oxo-2H-benzo[e][1,3]oxazin-3(4H)-yl)cyclohexyl)-6-(1H-1,2,4-triazol-3-yl)-1H-imidazo[4,5-c]pyridin-2-yl)benzonitrile] yielded an IC50 of under 100 nM.

Turning to `COc1ccc(Cl)cc1C(=O)N[C@H]1CCC[C@@H](n2c(-c3ccccc3C#N)nc3cnc(-c4nc[nH]n4)cc32)[C@@H]1O` [Example 108, 5-chloro-N-((1S,2R,3R)-3-(2-(2-cyanophenyl)-6-(1H-1,2,4-triazol-3-yl)-1H-imidazo[4,5-c]pyridin-1-yl)-2-hydroxycyclohexyl)-2-methoxybenzamide], the IC50 is under 100 nM.

For the compound `O=C1c2cc(Cl)ccc2OCCN1[C@H]1CCC[C@@H](n2c(-c3ccccc3F)nc3cnc(-c4nc[nH]n4)cc32)C1` [Example 216, 7-chloro-4-((1S,3R)-3-(2-(2-fluorophenyl)-6-(1H-1,2,4-triazol-3-yl)-1H-imidazo[4,5-c]pyridin-1-yl)cyclohexyl)-3,4-dihydrobenzo[f][1,4]oxazepin-5(2H)-one], the IC50 was over 1000 nM.

For `CN1C[C@@H](NC(=O)c2cc(Cl)ccc2OCCO)C[C@@H](n2c(-c3ccccc3F)nc3cnc(-c4nc[nH]n4)cc32)C1` [Example 151, 5-chloro-N-((3S,5R)-5-(2-(2-fluorophenyl)-6-(1H-1,2,4-triazol-3-yl)-1H-imidazo[4,5-c]pyridin-1-yl)-1-methylpiperidin-3-yl)-2-(2-hydroxyethoxy)benzamide], the IC50 was in the range of 100 to 500 nM.

In turn, `CC(C)COc1ccc(Cl)cc1C(=O)N[C@H]1CCC[C@@H](n2c(-c3ncccc3F)nc3cnc(-c4nc[nH]n4)cc32)C1` [Example 48, 5-chloro-N-((1S,3R)-3-(2-(3-fluoropyridin-2-yl)-6-(1H-1,2,4-triazol-3-yl)-1H-imidazo[4,5-c]pyridin-1-yl)cyclohexyl)-2-isobutoxybenzamide] returned an IC50 of under 100 nM.

Compound `NCCOc1ccc(Cl)cc1C(=O)N[C@H]1CCC[C@@H](n2c(-c3ccccc3F)nc3cnc(-c4nc[nH]n4)cc32)C1` [Example 42, 2-(2-aminoethoxy)-5-chloro-N-((1S,3R)-3-(2-(2-fluorophenyl)-6-(1H-1,2,4-triazol-3-yl)-1H-imidazo[4,5-c]pyridin-1-yl)cyclohexyl)benzamide] displayed an IC50 of under 100 nM.

`Cc1coc(-c2cc3c(cn2)nc(-c2ccccc2F)n3[C@@H]2CCC[C@H](NC(=O)c3cc(F)ccc3F)[C@H]2O)n1` [Example 125, 2,5-difluoro-N-((1S,2R,3R)-3-(2-(2-fluorophenyl)-6-(4-methyloxazol-2-yl)-1H-imidazo[4,5-c]pyridin-1-yl)-2-hydroxycyclohexyl)benzamide] returned an IC50 of under 100 nM.
